Laboratory results as given in publication PMC8550792, “Evolution of kinase polypharmacology across HSP90 drug discovery” (Cell Chemical Biology, 2021).
Read-outs that look alike come from different tables or passages of the source.

Tests used:
Experiment in all cases: biochemical
Type in all cases: biochemical
382 unique human kinases [1] = target: T1, 382 unique human kinases (Homo sapiens, UniProt Q00535); details: for remaining activity at 10 µM: read-out: % Enzyme Activity (relative to DMSO controls)
T1 construct: purchased Reaction Biology (HotSpot contract assay)
T1 sequence (Q00535 whole entry): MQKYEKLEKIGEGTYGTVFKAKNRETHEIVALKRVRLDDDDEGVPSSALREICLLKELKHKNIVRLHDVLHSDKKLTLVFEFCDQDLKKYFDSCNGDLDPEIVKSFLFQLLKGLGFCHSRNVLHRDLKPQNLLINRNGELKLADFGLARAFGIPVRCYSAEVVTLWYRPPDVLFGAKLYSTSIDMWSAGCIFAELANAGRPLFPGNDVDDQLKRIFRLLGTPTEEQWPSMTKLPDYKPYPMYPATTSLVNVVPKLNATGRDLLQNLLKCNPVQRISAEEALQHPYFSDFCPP

382 unique human kinases [2] = target: T2, 382 unique human kinases (Homo sapiens, UniProt Q6P3R8); details: NEK5, 10 uM; for remaining activity at 10 µM: read-out: % Enzyme Activity (relative to DMSO controls)
T2 construct: purchased Reaction Biology (HotSpot contract assay)
T2 sequence (Q6P3R8 1-708): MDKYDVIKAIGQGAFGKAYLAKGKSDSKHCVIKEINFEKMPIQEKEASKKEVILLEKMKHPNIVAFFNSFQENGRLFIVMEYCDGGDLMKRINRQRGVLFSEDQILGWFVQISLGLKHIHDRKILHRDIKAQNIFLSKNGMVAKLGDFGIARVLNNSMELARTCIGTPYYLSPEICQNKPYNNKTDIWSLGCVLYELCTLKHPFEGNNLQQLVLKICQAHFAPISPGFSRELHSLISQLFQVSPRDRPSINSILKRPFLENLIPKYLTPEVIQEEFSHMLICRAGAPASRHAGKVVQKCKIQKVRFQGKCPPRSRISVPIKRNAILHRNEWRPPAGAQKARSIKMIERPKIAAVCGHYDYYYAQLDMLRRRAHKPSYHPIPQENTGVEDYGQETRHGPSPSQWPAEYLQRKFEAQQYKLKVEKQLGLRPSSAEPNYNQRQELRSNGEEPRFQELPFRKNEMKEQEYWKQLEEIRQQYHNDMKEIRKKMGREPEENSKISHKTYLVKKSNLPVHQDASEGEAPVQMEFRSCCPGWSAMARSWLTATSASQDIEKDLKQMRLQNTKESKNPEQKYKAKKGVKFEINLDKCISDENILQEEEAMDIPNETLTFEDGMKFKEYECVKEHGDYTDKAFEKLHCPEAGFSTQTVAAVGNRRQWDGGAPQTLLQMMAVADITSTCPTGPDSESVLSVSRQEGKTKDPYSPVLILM

382 unique human kinases [3] = target: T3, 382 unique human kinases (Homo sapiens, UniProt P29317); details: EPHA2, [ATP] 50 µM, compound 10 uM; for remaining activity at 10 µM: read-out: % Enzyme Activity (relative to DMSO controls)
T3 construct: purchased Reaction Biology (HotSpot contract assay)
T3 sequence (P29317 24-976): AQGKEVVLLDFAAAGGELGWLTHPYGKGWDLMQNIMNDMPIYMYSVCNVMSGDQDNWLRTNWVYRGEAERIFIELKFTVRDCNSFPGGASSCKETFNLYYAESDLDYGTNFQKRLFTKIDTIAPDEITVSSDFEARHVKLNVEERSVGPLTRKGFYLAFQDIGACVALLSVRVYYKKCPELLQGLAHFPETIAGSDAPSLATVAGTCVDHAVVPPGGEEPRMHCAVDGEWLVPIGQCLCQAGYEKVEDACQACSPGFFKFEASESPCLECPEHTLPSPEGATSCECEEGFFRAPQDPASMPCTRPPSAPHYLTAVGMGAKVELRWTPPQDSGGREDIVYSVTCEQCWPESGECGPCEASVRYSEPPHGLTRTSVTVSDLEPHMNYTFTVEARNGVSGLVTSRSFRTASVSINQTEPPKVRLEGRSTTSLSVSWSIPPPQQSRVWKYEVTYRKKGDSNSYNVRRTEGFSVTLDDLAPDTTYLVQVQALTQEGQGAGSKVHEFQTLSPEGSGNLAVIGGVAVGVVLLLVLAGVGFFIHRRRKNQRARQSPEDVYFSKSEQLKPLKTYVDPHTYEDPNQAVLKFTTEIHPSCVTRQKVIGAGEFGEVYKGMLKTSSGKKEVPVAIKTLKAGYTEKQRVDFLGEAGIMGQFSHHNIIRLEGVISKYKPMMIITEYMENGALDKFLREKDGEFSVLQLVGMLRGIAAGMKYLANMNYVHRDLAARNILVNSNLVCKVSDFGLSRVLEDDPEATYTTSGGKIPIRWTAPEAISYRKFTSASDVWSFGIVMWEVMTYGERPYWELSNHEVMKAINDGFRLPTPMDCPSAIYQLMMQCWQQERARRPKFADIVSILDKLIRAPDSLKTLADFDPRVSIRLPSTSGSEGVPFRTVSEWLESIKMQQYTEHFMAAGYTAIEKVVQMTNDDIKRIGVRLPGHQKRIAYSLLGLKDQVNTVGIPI

382 unique human kinases [4] = target: T4, 382 unique human kinases (Homo sapiens, UniProt Q14680); details: MELK, [ATP] 50 µM, compound 10 uM; for remaining activity at 10 µM: read-out: % Enzyme Activity (relative to DMSO controls)
T4 construct: purchased Reaction Biology (HotSpot contract assay)
T4 sequence (Q14680 whole entry): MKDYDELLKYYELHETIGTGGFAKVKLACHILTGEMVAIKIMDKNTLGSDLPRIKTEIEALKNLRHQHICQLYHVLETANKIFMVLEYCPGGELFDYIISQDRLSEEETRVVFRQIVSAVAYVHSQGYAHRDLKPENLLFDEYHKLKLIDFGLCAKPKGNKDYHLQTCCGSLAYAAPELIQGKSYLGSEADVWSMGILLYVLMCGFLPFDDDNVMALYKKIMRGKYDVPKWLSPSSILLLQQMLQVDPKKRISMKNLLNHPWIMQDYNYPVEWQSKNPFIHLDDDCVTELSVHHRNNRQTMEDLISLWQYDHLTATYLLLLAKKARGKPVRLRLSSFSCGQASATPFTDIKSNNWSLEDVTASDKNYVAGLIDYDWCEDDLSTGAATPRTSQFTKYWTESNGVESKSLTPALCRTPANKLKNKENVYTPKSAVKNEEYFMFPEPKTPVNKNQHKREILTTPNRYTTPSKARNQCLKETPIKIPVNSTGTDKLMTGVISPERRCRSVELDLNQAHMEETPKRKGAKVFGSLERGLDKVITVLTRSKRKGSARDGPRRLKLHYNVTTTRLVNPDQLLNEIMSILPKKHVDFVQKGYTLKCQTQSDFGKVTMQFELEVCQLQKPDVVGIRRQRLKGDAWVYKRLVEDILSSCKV

382 unique human kinases [5] = target: T5, 382 unique human kinases (Homo sapiens, UniProt Q06418); details: TYRO3/SKY, 10 uM; for remaining activity at 10 µM: read-out: % Enzyme Activity (relative to DMSO controls)
T5 construct: purchased Reaction Biology (HotSpot contract assay)
T5 sequence (Q06418 41-890): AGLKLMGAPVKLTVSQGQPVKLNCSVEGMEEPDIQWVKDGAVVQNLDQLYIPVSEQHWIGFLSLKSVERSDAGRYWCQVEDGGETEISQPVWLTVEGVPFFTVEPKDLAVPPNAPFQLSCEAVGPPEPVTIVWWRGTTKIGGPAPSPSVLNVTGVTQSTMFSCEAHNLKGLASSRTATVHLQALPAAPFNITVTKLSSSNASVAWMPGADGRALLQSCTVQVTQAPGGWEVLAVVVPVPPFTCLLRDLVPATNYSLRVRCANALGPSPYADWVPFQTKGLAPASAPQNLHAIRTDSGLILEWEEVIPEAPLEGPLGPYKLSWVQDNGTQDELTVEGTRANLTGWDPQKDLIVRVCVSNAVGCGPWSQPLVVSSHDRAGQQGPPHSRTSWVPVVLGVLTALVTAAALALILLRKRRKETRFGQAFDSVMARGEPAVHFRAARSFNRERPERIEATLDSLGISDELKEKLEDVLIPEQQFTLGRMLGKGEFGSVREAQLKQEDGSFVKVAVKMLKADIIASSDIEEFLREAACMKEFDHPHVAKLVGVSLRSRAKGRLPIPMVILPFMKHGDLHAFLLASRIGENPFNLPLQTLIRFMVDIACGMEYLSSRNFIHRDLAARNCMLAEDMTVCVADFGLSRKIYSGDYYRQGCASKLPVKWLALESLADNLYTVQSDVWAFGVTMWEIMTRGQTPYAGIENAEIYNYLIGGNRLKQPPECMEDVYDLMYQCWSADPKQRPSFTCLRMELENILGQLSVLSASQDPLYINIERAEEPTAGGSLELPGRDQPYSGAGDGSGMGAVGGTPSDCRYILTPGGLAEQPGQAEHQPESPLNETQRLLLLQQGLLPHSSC

382 unique human kinases [6] = target: T6, 382 unique human kinases (Homo sapiens, UniProt Q9P289); details: MST4, 10 uM; for remaining activity at 10 µM: read-out: % Enzyme Activity (relative to DMSO controls)
T6 construct: purchased Reaction Biology (HotSpot contract assay)
T6 sequence (Q9P289 whole entry): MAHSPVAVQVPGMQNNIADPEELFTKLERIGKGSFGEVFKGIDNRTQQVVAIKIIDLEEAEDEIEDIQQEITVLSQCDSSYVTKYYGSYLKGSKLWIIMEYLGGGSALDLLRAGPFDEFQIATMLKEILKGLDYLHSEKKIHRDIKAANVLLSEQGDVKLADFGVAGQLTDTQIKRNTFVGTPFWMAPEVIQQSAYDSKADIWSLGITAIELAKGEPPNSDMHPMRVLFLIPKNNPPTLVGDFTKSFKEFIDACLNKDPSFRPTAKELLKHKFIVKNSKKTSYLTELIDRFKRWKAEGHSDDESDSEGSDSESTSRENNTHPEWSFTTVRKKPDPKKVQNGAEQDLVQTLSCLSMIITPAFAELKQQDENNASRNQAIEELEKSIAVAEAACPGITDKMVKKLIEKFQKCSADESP

382 unique human kinases [7] = target: T7, 382 unique human kinases (Homo sapiens, UniProt P49840); details: GSK3a, [ATP] 30 µM, compound 10 uM; for remaining activity at 10 µM: read-out: % Enzyme Activity (relative to DMSO controls)
T7 construct: purchased Reaction Biology (HotSpot contract assay)
T7 sequence (P49840 whole entry): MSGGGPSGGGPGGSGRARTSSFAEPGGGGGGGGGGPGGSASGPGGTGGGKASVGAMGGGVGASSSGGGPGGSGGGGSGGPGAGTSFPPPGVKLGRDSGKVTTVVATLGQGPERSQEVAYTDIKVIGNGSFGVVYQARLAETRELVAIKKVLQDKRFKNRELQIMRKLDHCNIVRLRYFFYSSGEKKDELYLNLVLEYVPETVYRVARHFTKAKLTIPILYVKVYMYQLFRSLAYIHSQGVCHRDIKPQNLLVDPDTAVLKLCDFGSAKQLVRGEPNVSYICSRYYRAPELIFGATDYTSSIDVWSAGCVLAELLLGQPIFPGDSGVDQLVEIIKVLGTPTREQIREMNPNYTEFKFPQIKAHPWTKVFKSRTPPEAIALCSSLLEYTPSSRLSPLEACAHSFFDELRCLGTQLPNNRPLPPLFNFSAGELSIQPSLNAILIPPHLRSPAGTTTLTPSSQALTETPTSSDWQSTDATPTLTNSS

382 unique human kinases [8] = target: T8, 382 unique human kinases (Homo sapiens, UniProt Q16832, N456S); details: DDR2 (N456S), [ATP] 2.5 µM, compound 10 uM; for remaining activity at 10 µM: read-out: % Enzyme Activity (relative to DMSO controls)
T8 construct: purchased Reaction Biology (HotSpot contract assay)
T8 sequence (Q16832 22-855 N456S): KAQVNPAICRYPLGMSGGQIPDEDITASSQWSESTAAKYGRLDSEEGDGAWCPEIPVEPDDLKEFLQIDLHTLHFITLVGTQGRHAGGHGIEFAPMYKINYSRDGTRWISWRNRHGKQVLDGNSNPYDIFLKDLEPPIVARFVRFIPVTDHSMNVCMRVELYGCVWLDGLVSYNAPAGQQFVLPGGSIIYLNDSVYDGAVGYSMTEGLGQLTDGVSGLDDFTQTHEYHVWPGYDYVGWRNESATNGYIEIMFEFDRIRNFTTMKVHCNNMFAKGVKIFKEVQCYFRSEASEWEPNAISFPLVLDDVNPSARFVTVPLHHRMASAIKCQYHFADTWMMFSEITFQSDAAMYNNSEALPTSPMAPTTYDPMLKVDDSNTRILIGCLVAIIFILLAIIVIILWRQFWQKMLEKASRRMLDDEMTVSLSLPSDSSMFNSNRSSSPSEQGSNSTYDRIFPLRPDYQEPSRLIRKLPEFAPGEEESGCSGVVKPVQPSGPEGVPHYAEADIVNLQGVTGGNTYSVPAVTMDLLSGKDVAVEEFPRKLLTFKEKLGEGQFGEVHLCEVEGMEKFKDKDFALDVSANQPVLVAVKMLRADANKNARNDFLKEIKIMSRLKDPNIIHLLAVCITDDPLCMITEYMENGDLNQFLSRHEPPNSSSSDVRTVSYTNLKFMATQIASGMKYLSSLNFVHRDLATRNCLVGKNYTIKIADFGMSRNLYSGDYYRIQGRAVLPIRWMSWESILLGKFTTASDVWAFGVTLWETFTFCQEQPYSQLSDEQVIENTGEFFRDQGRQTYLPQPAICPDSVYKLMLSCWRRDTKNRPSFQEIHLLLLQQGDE

[9] = kinase CDK5/p25, compound 10 uM

Row | SMILES | remaining activity at 10 µM (382 unique human kinases [1]; CDK5/p35, 10 uM) [%] | remaining activity at 10 µM (382 unique human kinases [1]; [9]) [%] | remaining activity at 10 µM (382 unique human kinases [2]) [%] | remaining activity at 10 µM (382 unique human kinases [3]) [%] | remaining activity at 10 µM (382 unique human kinases [4]) [%] | remaining activity at 10 µM (382 unique human kinases [5]) [%] | remaining activity at 10 µM (382 unique human kinases [6]) [%] | remaining activity at 10 µM (382 unique human kinases [7]) [%] | remaining activity at 10 µM (382 unique human kinases [8]) [%] | % Enzyme Activity (relative to DMSO controls) (382 unique human kinases [3]) [%] | % Enzyme Activity (relative to DMSO controls) (382 unique human kinases [4]) [%] | % Enzyme Activity (relative to DMSO controls) (382 unique human kinases [5]) [%] | % Enzyme Activity (relative to DMSO controls) (382 unique human kinases [6]) [%] | % Enzyme Activity (relative to DMSO controls) (382 unique human kinases [7]) [%] | % Enzyme Activity (relative to DMSO controls) (382 unique human kinases [8]) [%] | % Enzyme Activity (relative to DMSO controls) (382 unique human kinases [1]; CDK5/p35, 10 uM) [%] | % Enzyme Activity (relative to DMSO controls) (382 unique human kinases [1]; [9]) [%] | % Enzyme Activity (relative to DMSO controls) (382 unique human kinases [2]) [%]
1 | CC(C)c1cc(-c2n[nH]c(=O)n2-c2ccc3c(ccn3C)c2)c(O)cc1O [Ganetespib (STA9090)] | 70.1 | 80.9 | 105 |  |  |  |  |  |  |  |  |  |  |  |  |  |  | 
2 | CC(C)c1cc(-c2n[nH]c(=O)n2-c2ccc3c(ccn3C)c2)c(O)cc1O [Ganetespib] |  |  |  | 43.5 | 44.5 | 102 | 93.8 | 21.9 | 2.65 |  |  |  |  |  |  |  |  | 
3 | CCNC(=O)c1noc(-c2cc(C(C)C)c(O)cc2O)c1-c1ccc(CN2CCOCC2)cc1 [Luminespib] |  |  |  | 92.4 | 56.9 | 107 | 95.1 | 96.4 | 90.4 | 92.01 | 56.86 | 106.19 | 93.01 | 93.84 | 85.24 |  |  | 
4 | CCNC(=O)c1noc(-c2cc(C(C)C)c(O)cc2O)c1-c1ccc(CN2CCOCC2)cc1 [Luminespib (AUY-922)] | 103 | 102 | 70.4 |  |  |  |  |  |  |  |  |  |  |  |  | 102.70 | 102.12 | 66.42
